{
  "source": "patent US20100012891A1",
  "about": "“Tooth Whitening Compositions and Methods” (priority 2008, published 2010)",
  "origin": "cited, not measured here",
  "conditions": "at six months, 16%-18% carbamide peroxide (Brunton et al., 2004)",
  "data": [
    {"smiles": "NC(N)=O.OO", "note": "[carbamide peroxide]", "values": [
      {"measurement": "patients with rebound", "result": 40, "unit": "%"}
    ]}
  ]
}
